Tests used:
COVID-19 = settings: cited from earlier work
SARS-CoV-2 M^pro = SARS-CoV-2 M^pro (Severe acute respiratory syndrome coronavirus 2, UniProt P0DTD1); assay: FRET-based kinetic assay of M^pro inhibition; format: biochemical

Structure (SMILES): Cc1cccc(C)c1OCC(=O)N[C@@H](Cc1ccccc1)[C@@H](O)C[C@H](Cc1ccccc1)NC(=O)[C@H](C(C)C)N1CCCNC1=O [lopinavir]
- benefits against COVID-19 in clinical trials (COVID-19; clinical trials, no reference given): neither lopinavir nor the lopinavir/ritonavir combination has thus far shown any significant benefits

Structure (SMILES): CCC(CC)COC(=O)[C@H](C)N[P@](=O)(OC[C@H]1O[C@@](C#N)(c2ccc3c(N)ncnn23)[C@H](O)[C@@H]1O)Oc1ccccc1 [remdesivir]
- clinical benefit (COVID-19; adult patients hospitalized for severe COVID-19): no statistically significant clinical benefits
- time to clinical improvement (COVID-19; in comparison to the placebo-control group): faster time to clinical improvement

Structure (SMILES): Cc1c(O)cccc1C(=O)N[C@@H](CSc1ccccc1)[C@H](O)CN1C[C@H]2CCCC[C@H]2C[C@H]1C(=O)NC(C)(C)C [nelfinavir]
- IC50 (SARS-CoV-2 M^pro): 250 to 600 µM
